The values that follow come from paper PMC10188280 (Inorganic chemistry, 2022).

In general, IC50 refers to the concentration that inhibits the measured activity by half. Usually pKa stands for the pH at which an ionisable group is half protonated.

One data set relates to MDA-MB-231 (Breast). The data set can be described thus: MTT antiproliferative assay, 72 h. It counts as cell-based. The settings on record: read-out: IC50 values MDA-MB-231 (Breast), 72 h exposure, mean ± SDM, n = 3.
Another data set relates to MCF-7 (Breast). The data set can be described thus: MTT antiproliferative assay, 72 h. The class given is cell-based. The following applies: read-out: IC50 values MCF-7 (Breast), 72 h exposure, mean ± SDM, n = 3. Background: Formazan colour is commonly taken as a measure of viable cells.
The test system of the next data set is A2780 (Ovary). The data set can be described thus: MTT antiproliferative assay, 72 h. It counts as cell-based. The settings on record: read-out: IC50 values A2780 (Ovary), 72 h exposure, mean ± SDM, n = 3.
Another data set relates to SK-OV-3 (Ovary). Kind of data set: MTT antiproliferative assay, 72 h. It counts as cell-based. The settings on record: read-out: IC50 values SK-OV-3 (Ovary), 72 h exposure, mean ± SDM, n = 3.
The next data set concerns Caco-2 (Colon). Kind of data set: MTT antiproliferative assay, 72 h. The class given is cell-based. The following applies: read-out: IC50 values Caco-2 (Colon), 72 h exposure, mean ± SDM, n = 3.
A further data set relates to HT-29 (Colon). Kind of data set: MTT antiproliferative assay, 72 h. The settings on record: read-out: IC50 values HT-29 (Colon), 72 h exposure, mean ± SDM, n = 3. The class given is cell-based.
The conditions of data set [1]: unsubstituted (lacking the N4 phenyl) compound; cited from earlier work.
In the next data set the test system is A2780 cells. The data set can be described thus: Cell cycle analysis by flow cytometry. The following applies: 24 h, lower of two concentrations close to 24-h IC50. It counts as cell-based. In general terms: In flow cytometry, cells or beads pass a laser one at a time.

As for `Oc1ccccc1C=NNC(=S)Nc1ccccc1` [STC1], the IC50 came to 4.8 ± 0.2 µM with MDA-MB-231 (Breast); 1.74 ± 0.04 µM in the data set with MCF-7 (Breast); 1.9 ± 0.1 µM in the data set with A2780 (Ovary); 2.3 ± 0.2 µM with SK-OV-3 (Ovary); 7.3 ± 0.8 µM with Caco-2 (Colon); 9.5 ± 0.5 µM with HT-29 (Colon).

Turning to `NC(=S)N/N=C/c1ccccc1O` [salicylaldehyde thiosemicarbazone], in data set [1], the pKa was 8.8.

`CC(=O)N(O)CCCCCNC(=O)CCC(=O)N(O)CCCCCNC(=O)CCC(=O)N(O)CCCCCN` [DFO]: the IC50 in the data set with MDA-MB-231 (Breast) worked out at 4.58 ± 0.03 µM; in the data set with MCF-7 (Breast), 22.5 ± 0.3 µM; with A2780 (Ovary) it was 1.9 ± 0.1 µM; in the data set with SK-OV-3 (Ovary) it was 9.5 ± 0.5 µM; in the data set on Caco-2 (Colon), 3.9 ± 0.5 µM; with HT-29 (Colon), 2.3 ± 0.2 µM. In addition, the “cell cycle distribution at the lower concentration” value with A2780 cells is recorded as “a larger fraction of cells was able to proceed to the S phase but remained unable to reach the G2 phase”.
